Laboratory results: patent US20190338294A1, “ORTHOGONAL TRANSCRIPTIONAL SWITCHES DERIVED FROM TET REPRESSOR HOMOLOGS FOR SACCHAROMYCES CEREVISIAE” (The Johns Hopkins University, priority 2016, published 2019)
Like-named read-outs stand apart in the source and are kept apart here.

How the values were obtained:
[1] = system: ethTA(=NLS-ethR-VP16); format: cell-based, Mycobacterium tuberculosis; details: 2-Benzyl acetate 0.01%, On w/o drug
[2] = system: lmrTAv2 (=NLS-lmrA-VP16); experiment: Lmr-Offv2 switch candidate, GFP reporter (strain lmr/yxaG-lmrTAv2); format: cell-based, Bacillus subtilis; details: Quercetin 0.13 μM, Fisetin 0.19 μM, Coumesterol 0.22 μM, On w/o drug
[3] = system: phlTA (=phlF-VP16); experiment: DAPG-Off switch, GFP reporter, flow cytometry (strain DapG-TA); format: cell-based, Pseudomonas; details: for GFP fluorescence of DapG-TA: compared with BY4741 (background); for intensity of reporter GFP fluorescence, DAPG-Off switch: SC with 25-μM doxycycline, 25-μM D-camphor, 48-μM DAPG or 150-μM p-cumate
[4] = system: BY4741; details: cited from earlier work
[5] = system: phlTA (=phlF-VP16); experiment: DAPG-Off system with ADE2 reporter, spot growth on SC-Ade (strain phlA-TA); details: 24 μM DAPG, 2 days at 30° C.
Description: FIG. 3A-FIG. 3D is a series of photographs showing the evaluation of the DAPG-Off system using the ADE2 gene (CDS) as a reporter. Cells were cultured for 2 days at 30° C. in SC (FIG. 3A), SC-Ade (FIG. 3B), SC with 24 μM of DAPG (FIG. 3C), and SC-Ade with 24-DAPG (FIG. 3D). Cells were diluted 10-fold stepwise across each row.
A second reporter gene was used to further assess the performance of the DAPG-Off switch. Here, it was examined whether the ADE2 gene under the control of phlPr complements the adenine-auxotrophy of strain BY11204 in a DAPG-dependent manner (FIG. 3A-FIG. 3D).

[6] = biological target: T1, cymTA(=NLS-cymR-VP16) (Pseudomonas putida, UniProt O33453); experiment: Cumate-Off switch, GFP reporter (strain cymG-TA); format: cell-based; details: SC with 25-μM doxycycline, 25-μM D-camphor, 48-μM DAPG or 150-μM p-cumate
T1 construct: (cymTA in pSIB470); expressed in transfected cells; host or cells: Saccharomyces cerevisiae BY4741, integrated pSIB470 (strain cymG-TA)
T1 sequence (O33453 other isoform, or with tags, fused parts or gaps): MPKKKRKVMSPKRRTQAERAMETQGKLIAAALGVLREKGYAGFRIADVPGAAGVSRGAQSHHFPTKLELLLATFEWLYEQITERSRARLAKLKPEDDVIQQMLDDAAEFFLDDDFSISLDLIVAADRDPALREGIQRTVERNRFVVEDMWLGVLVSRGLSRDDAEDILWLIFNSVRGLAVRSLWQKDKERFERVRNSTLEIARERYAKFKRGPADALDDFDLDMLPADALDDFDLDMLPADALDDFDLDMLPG

[7] = biological target: T2, tTA (=tetR-VP16) (Escherichia coli, UniProt P04483); experiment: Tet-Off switch, GFP reporter, orthogonality test; format: cell-based; details: SC with 25-μM doxycycline, 25-μM D-camphor, 48-μM DAPG or 150-μM p-cumate
T2 construct: expressed in transfected cells; host or cells: Saccharomyces cerevisiae BY4742, integrated pSIB527 (strain TetOffG)

[8] = system: NLS-PhlF; experiment: DAPG-On system with ADE2 reporter, spot growth on SC-Ade (strains AphOx-2μPhlF); details: 5 μM DAPG; hardly grew on DAPG-free SC-Ade
Description: Cells were cultured for 1 day at 30° C. in SC-Leu-His (FIG. 6A), SC-Leu-His-Ade (FIG. 6B), SC-Leu-His with 24-μM DAPG (FIG. 6C), and SC-Leu-His-Ade with 24-μM DAPG (FIG. 6D). The cells were diluted 10-fold stepwise across each row.
The performance of the DAPG-On system was assessed using ADE2 as a reporter in the ade2Δ BY11204 strain.

[9] = system: camTA (=camR-VP16-NLS); experiment: Camphor-Off switch, GFP reporter, orthogonality test; format: cell-based, Pseudomonas putida; details: SC with 25-μM doxycycline, 25-μM D-camphor, 48-μM DAPG or 150-μM p-cumate
[10] = system: BY4741; experiment: Effects of DAPG on plating efficiency of BY4741; format: cell-based, Saccharomyces cerevisiae; details: 2 days
Description: FIG. 2 is a bar graph showing the effects of DAPG on plating efficiency of BY4741. Yeast strain BY4741 overnight culture in SC medium was diluted 25,000-fold, and 100 μl was spread on SC, and SC containing 24-μM or 48 μM of DAPG. The number of colonies formed was counted after 2 days. The values were means and standard deviations calculated from three experiments.

[11] = system: varTA (=varR-VP16); experiment: Var-Off switch candidate, GFP reporter (strain varG-TA); format: cell-based, Streptomyces virginae; details: Virginiamycin S1 2 mM, On w/o drug
[12] = system: icaTA (=icaR-VP16); experiment: IcaR-Off switch candidate, GFP reporter (strain icaG-TA); format: cell-based, Staphylococcus epidermidis; details: Gentamicin 10 mM, On w/o drug

CC(=O)OCc1ccccc1 [2-Benzyl acetate]
Expression of GFP with drug [1]: On
Expression of GFP with drug ([1]; listed as 2-benzyl acetate): solid ligand-independent GFP fluorescence

O=c1oc2cc(O)ccc2c2oc3cc(O)ccc3c12 [Coumesterol]
Expression of GFP with drug [2]: On

CC(=O)c1c(O)cc(O)c(C(C)=O)c1O [DAPG, 2,4-diacetylphloroglucinol]
culture time over which GFP fluorescence reduced to background levels ([3]; 48 μM DAPG, strain DapG-TA): 14 h
GFP fluorescence of DapG-TA ([3]; 12-μM DAPG in SC): higher than that of the BY4741 control strain
GFP fluorescence of DapG-TA ([3]; 48-μM DAPG in SC): decreased to the same level as BY4741
intensity of reporter GFP fluorescence, DAPG-Off switch [3]: decreased to the background level
growth of BY4741 ([4]; 10-μg/ml DAPG (Kwak et al., 2011)): did not inhibit growth
growth of cells of BY4741 background ([4]; higher concentrations than 10-μg/ml DAPG (Troppens et al., 2013)): did show sensitivity
growth of phlA-TA strain on SC-Ade medium [5]: did not grow
intensity of reporter GFP fluorescence, Cumate-Off switch [6]: strong GFP signal
intensity of reporter GFP fluorescence, Tet-Off switch [7]: lowered GFP fluorescence
growth of strains AphOx-2μPhlF on SC-Ade medium [8]: vigorous growth
intensity of reporter GFP fluorescence, Camphor-Off switch [9]: lowered GFP fluorescence
number of colonies formed ([10]; SC with 24-μM (5-μg/ml) DAPG vs SC without DAPG): little difference
number of colonies formed ([10]; SC with 48-μM (10-μg/ml) DAPG vs SC without DAPG): little difference

O=c1c(O)c(-c2ccc(O)c(O)c2)oc2cc(O)ccc12 [Fisetin]
Expression of GFP with drug [2]: On

O=c1c(O)c(-c2ccc(O)c(O)c2)oc2cc(O)cc(O)c12 [Quercetin]
Expression of GFP with drug [2]: On
Expression of GFP with drug ([2]; listed as quercetin): not ligand (quercetin)-responsive

CC[C@H]1NC(=O)[C@@H](NC(=O)c2ncccc2O)[C@@H](C)OC(=O)[C@H](c2ccccc2)NC(=O)[C@@H]2CC(=O)CCN2C(=O)[C@H](Cc2ccccc2)N(C)C(=O)[C@@H]2CCCN2C1=O [Virginiamycin S1]
Expression of GFP with drug [11]: On
Expression of GFP with drug ([11]; listed as virginiamycin S): strong GFP expression

D-camphor
intensity of reporter GFP fluorescence, DAPG-Off switch [3]: strong GFP signal
intensity of reporter GFP fluorescence, Cumate-Off switch [6]: strong GFP signal
intensity of reporter GFP fluorescence, Tet-Off switch [7]: strong GFP signal
intensity of reporter GFP fluorescence, Camphor-Off switch [9]: decreased to the background level

Gentamicin
Expression of GFP with drug [12]: On
Expression of GFP with drug ([12]; listed as gentamicin): solid ligand-independent GFP fluorescence
